Biological target: T1, Adenosine deaminase (ADA) (Bos taurus, UniProt P56658)
T1 sequence (P56658 2-363): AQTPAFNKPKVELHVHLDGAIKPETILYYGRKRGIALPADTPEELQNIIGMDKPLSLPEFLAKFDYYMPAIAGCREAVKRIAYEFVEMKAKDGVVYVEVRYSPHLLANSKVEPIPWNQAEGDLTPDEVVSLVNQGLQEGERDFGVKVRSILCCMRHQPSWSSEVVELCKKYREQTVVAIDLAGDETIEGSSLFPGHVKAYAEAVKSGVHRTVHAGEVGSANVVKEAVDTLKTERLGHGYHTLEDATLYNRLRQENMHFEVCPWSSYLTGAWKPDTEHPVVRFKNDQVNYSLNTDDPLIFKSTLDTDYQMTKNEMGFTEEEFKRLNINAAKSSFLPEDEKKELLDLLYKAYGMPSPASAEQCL
Experiment: biochemical

`CCCCCC[C@@H]([C@@H](C)O)n1cnc2c(N)ncnc21` (racemic) [EHNA, erythro-9-(2-hydroxy-3-nonyl)adenine] gave an IC50 of 64 nM.

Reference: paper PMC6631010, “Development of a Simple Assay Method for Adenosine Deaminase via Enzymatic Formation of an Inosine-Tb^3+ Complex” (Sensors (Basel, Switzerland), 2019)
